Assay results published in US8664236B2, “1H-pyrrolo[2,3 b]-pyridine derivatives” (Merck Patent GmbH, priority 2010, dated 2014).
pIC50: −log10 of the molar value. Read-outs that look alike come from different tables or passages of the source.

Columns and labels:
[1] = target: PDK1 (His6-PDK1(Δ1-50)) (Homo sapiens (Human), UniProt O15530); assay: Test for the inhibition of PDK1 (enzymatic, flashplate, 33P-ATP); format: biochemical
Method: 4. Test for the Inhibition of PDK1
The experimental batches are carried out in a flashplate system with 384 wells/microtitration plate.
The test substances are employed in corresponding concentrations (if desired in a dilution series). The control is carried out without test substance. The reaction is stopped using standard methods and washed. The activity of the kinase is measured via the incorporated radioactivity in top count. In order to determine the non-specific kinase reaction (blank value), the experimental batches are carried out in the presence of 100 nM staurosporine.
The radioactivity (decompositions per minute) of the blank value (no use of test substance in the presence of staurosporine) is subtracted from all other radioactivity values. The controls (kinase activity without test substance) are set equal to 100 percent and all other radioactivity values (after subtracting the blank value) are expressed set in relation thereto (for example in % of the control).

[2] = target: PDK1 kinase in PC3 cells (PKB phosphorylation at Thr 308) (Homo sapiens (Human), UniProt O15530); assay: Cellular testing of PDK1 kinase inhibitors in PC3 cells (Luminex, phospho-T308-PKB); format: cell-based; conditions: for pIC50: PKB phosphorylation at Thr 308 in PC3 cells, read-out: cellular IC50; for IC50: Table I comparison, values given in μM, read-out: PDK1 inhibition assay cellular IC50
Method: Method for the Cellular Testing of PDK1 Kinase Inhibitors in PC3 Cells
The cellular assay for the determination of the PDK1 kinase activity is carried out as a Luminex assay in the 96-well format. PC3 cells are sown at 20,000 cells per well in 100 μl of medium (45% of […]/45% of Ham's F12/10% of FCS) and incubated on the following day for 30 min with a serial dilution of the test substance (7 concentrations) under serum-free conditions. The cells are subsequently lysed using 90 μl of lysis buffer (20 mM tris/HCl pH 8.0, 150 mM NaCl, 1% of NP40, 10% of glycerol, 1% of phosphatase inhibitor I, 1% of phosphatase inhibitor II, 0.1% of protease inhibitor cocktail III, 0.01% of benzonase) per well, and the lysates are separated off from insoluble cell constituents by means of centrifugation through a 96-well filter plate (0.65 μm). The lysates are incubated overnight at 4° C. with shaking with Luminex beads to which an anti-total PKB antibody is coupled. The detection is carried out on the following day by addition of a phospho-T308-PKB antibody and a species-specific […] secondary antibody. The detection of phospho-T308-PKB is carried out by measurement in a Luminex100 instrument by determination of 100 events per cavity in a measurement time of 60 sec. […] The values of the batches treated with test substance are calculated therefrom as percentage of control, and IC50 values are determined by means of RS1.

[3] = enzymatic PDK1 inhibition assay, read-out: enzymatic IC50
[4] = Table I comparison, read-out: PDK1 inhibition assay enzymatic IC50

Chain of PDK1 kinase in PC3 cells (PKB phosphorylation at Thr 308) (O15530 whole entry): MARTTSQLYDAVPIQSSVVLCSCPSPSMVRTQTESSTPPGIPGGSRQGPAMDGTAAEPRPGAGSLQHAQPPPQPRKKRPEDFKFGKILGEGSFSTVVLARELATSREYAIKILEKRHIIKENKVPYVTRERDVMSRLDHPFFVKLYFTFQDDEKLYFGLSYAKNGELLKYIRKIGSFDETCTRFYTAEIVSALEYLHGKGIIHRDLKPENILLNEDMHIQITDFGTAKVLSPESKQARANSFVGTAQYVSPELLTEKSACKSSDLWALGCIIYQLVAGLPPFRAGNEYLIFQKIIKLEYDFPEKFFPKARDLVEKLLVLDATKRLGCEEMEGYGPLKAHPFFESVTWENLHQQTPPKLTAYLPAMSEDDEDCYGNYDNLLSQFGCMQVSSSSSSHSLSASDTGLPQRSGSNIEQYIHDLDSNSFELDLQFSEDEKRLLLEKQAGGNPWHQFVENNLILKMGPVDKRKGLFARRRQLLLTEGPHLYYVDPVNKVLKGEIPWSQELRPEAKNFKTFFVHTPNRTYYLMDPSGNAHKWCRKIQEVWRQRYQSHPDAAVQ
Chain of PDK1 (His6-PDK1(Δ1-50)) (O15530 51-556): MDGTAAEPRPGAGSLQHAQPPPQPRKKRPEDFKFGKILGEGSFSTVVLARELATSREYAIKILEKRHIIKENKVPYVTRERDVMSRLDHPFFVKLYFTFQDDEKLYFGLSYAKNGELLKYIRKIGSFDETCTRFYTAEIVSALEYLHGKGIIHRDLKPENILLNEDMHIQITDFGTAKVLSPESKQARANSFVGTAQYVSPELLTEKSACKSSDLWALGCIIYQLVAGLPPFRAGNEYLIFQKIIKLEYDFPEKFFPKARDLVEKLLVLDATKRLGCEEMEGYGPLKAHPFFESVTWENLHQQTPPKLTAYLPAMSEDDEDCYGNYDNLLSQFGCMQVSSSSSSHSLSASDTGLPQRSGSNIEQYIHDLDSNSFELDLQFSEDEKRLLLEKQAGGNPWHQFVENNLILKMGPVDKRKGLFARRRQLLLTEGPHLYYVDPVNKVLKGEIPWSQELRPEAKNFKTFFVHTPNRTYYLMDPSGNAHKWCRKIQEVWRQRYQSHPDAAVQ

| Structure (SMILES) | pIC50 [1, 3] | pIC50 [2] | pIC50 [1, 4] | IC50 [2] [µM] | pIC50 [1] |
| --- | --- | --- | --- | --- | --- |
| COc1ccc(N(C[C@H](O)CO)c2cc(-c3c[nH]c4ncc(-c5cnn(C)c5)cc34)nc(N)n2)cc1 [A5, (S)-3-[{2-Amino-6-[5-(1-methyl-1H-pyrazol-4-yl)-1H-pyrrolo-[2,3-b]pyridin-3-yl]pyrimidin-4-yl}-(4-methoxyphenyl)amino]-propane-1,2-diol] | 7.62 | 5.17 | – | – | – |
| CC(C)Cn1cc(-c2cnc3[nH]cc(-c4cc(CCCN)nc(N)n4)c3c2)cn1 [reference compound] | – | – | 7.96 | > 30 | – |
| CC(C)n1cc(-c2cnc3[nH]cc(-c4cc(N(CCO)c5ccccc5Cl)nc(N)n4)c3c2)cn1 [A15, 2-[{2-Amino-6-[5-(1-isopropyl-1H-pyrazol-4-yl)-1H-pyrrolo[2,3-b]pyridin-3-yl]pyrimidin-4-yl)-(2-chlorophenyl)amino]-ethanol] | – | 5.68 | – | – | – |
| CC(C)n1cc(-c2cnc3[nH]cc(-c4cc(N5CCc6cc(F)ccc65)nc(N)n4)c3c2)cn1 [A18, 4-(5-Fluoro-2,3-dihydroindol-1-yl)-6-[5-(1-isopropyl-1H-pyrazol-4-yl)-1H-pyrrolo[2,3-b]pyridin-3-yl]pyrimidin-2-ylamine] | 5.23 | < 5.00 | – | – | – |
| Cn1cc(-c2cnc3[nH]cc(-c4cc(N(CCC#N)c5ccccc5Cl)nc(N)n4)c3c2)cn1 [A30, 3-[{2-amino-6-[5-(1-methyl-1H-pyrazol-4-yl)-1H-pyrrolo[2,3-b]-pyridin-3-yl]pyrimidin-4-yl}-(2-chlorophenyl)amino]propionitrile] | – | – | – | – | 8.04 |
| Cn1cc(-c2cnc3[nH]cc(-c4cc(N5CCc6cc(F)ccc65)nc(N)n4)c3c2)cn1 [A17, 4-(5-Fluoro-2,3-dihydroindol-1-yl)-6-[5-(1-methyl-1H-pyrazol-4-yl)-1H-pyrrolo[2,3-b]pyridin-3-yl]pyrimidin-2-ylamine] | 6.70 | < 5.00 | – | – | – |
| Cn1cc(-c2cnc3[nH]cc(-c4cc(N(CCC(=O)O)c5ccccc5Cl)nc(N)n4)c3c2)cn1 [A23, 3-[{2-Amino-6-[5-(1-methyl-1H-pyrazol-4-yl)-1H-pyrrolo[2,3-b]-pyridin-3-yl]pyrimidin-4-yl)-(2-chlorophenyl)amino]propionic acid] | 8.32 | < 5.00 | – | – | – |
| Cn1cc(-c2cnc3[nH]cc(-c4cc(N(CCCN)c5ccccc5)nc(N)n4)c3c2)cn1 [A31, N4-(3-Aminopropyl)-6-[5-(1-methyl-1H-pyrazol-4-yl)-1H-pyrrolo[2,3-b]pyridin-3-yl]-N4-phenylpyrimidine-2,4-diamine] | 8.06 | 5.17 | 8.06 | 6.8 | – |
| CCN(c1cc(-c2c[nH]c3ncc(-c4cnn(C)c4)cc23)nc(N)n1)c1nncs1 [A20, N4-Ethyl-6-[5-(1-methyl-1H-pyrazol-4-yl)-1H-pyrrolo[2,3-b]pyridin-3-yl]-N4-1,3,4-thiadiazol-2-ylpyrimidine-2,4-diamine] | 6.81 | < 5.00 | – | – | – |
| Cn1cc(-c2cnc3[nH]cc(-c4cc(N(CCN5CCOCC5)c5cccc(F)c5)nc(N)n4)c3c2)cn1 [A28, N4-(3-Fluorophenyl)-6-[5-(1-methyl-1H-pyrazol-4-yl)-1H-pyrrolo[2,3-b]pyridin-3-yl]-N4-(2-morpholin-4-ylethyl)pyrimidine-2,4-diamine] | 7.05 | 5.01 | – | – | – |
| Cn1cc(-c2cnc3[nH]cc(-c4cc(N(CC(O)CO)c5cccc(C#N)c5)nc(N)n4)c3c2)cn1 (stereo not drawn) [A22, 3-[{2-Amino-6-[5-(1-methyl-1H-pyrazol-4-yl)-1H-pyrrolo[2,3-b]-pyridin-3-yl]pyrimidin-4-yl}-(2,3-dihydroxypropyl)amino]-benzonitrile] | 7.05 | < 5.00 | – | – | – |

Further lines, with some results ahead:

| pIC50 [1, 3] | pIC50 [2] | pIC50 [1, 4] | IC50 [2] [µM] | Structure (SMILES) | pIC50 [1] |
| --- | --- | --- | --- | --- | --- |
| 7.47 | 6.55 | – | – | CN(c1cccc(F)c1)c1cc(-c2c[nH]c3ncc(-c4cnn(C)c4)cc23)nc(N)n1 [A1, N4-(3-Fluorophenyl)-N4-methyl-6-[5-(1-methyl-1H-pyrazol-4-yl)-1H-pyrrolo[2,3-b]pyridin-3-yl]pyrimidine-2,4-diamine] | – |
| 7.34 | 7.70 | – | – | Cn1cc(-c2cnc3[nH]cc(-c4cc(C5(c6ccccc6F)CC5)nc(N)n4)c3c2)cn1 [A42, 4-[1-(2-Fluorophenyl)cyclopropyl]-6-[5-(1-methyl-1H-pyrazol-4-yl)-1H-pyrrolo[2,3-b]pyridin-3-yl]pyrimidin-2-ylamine] | – |
| – | 6.18 | – | – | CN(c1cccc(F)c1)c1cc(-c2c[nH]c3ncc(-c4cnn(C)c4)cc23)ncn1 [A30a] | – |
| 7.19 | 6.85 | – | – | Cn1cc(-c2cnc3[nH]cc(-c4cc(C(C)(C)c5ccccc5)nc(N)n4)c3c2)cn1 [A2, 4-(1-Methyl-1-phenylethyl)-6-[5-(1-methyl-1H-pyrazol-4-yl)-1H-pyrrolo[2,3-b]pyridin-3-yl]pyrimidin-2-ylamine] | – |
| 8.12 | 7.59 | – | – | CN(c1cc(-c2c[nH]c3ncc(-c4cnn(C)c4)cc23)nc(N)n1)c1ccccc1Cl [A10, N4-(2-Chlorophenyl)-N4-methyl-6-[5-(1-methyl-1H-pyrazol-4-yl)-1H-pyrrolo[2,3-b]pyridin-3-yl]pyrimidine-2,4-diamine] | – |
| 7.96 | 6.28 | – | – | COCC(O)CN(c1ccccc1)c1cc(-c2c[nH]c3ncc(-c4cnn(C)c4)cc23)nc(N)n1 (stereo not drawn) [A21, 1-({2-Amino-6-[5-(1-methyl-1H-pyrazol-4-yl)-1H-pyrrolo[2,3-b]-pyridin-3-yl]pyrimidin-4-yl}phenylamino)-3-methoxypropan-2-ol] | – |
| 8.01 | 7.57 | – | – | CN(c1cc(-c2c[nH]c3ncc(-c4cnn(C)c4)cc23)nc(N)n1)c1ccccc1F [A9, N4-(2-Fluorophenyl)-N4-methyl-6-[5-(1-methyl-1H-pyrazol-4-yl)-1H-pyrrolo[2,3-b]pyridin-3-yl]pyrimidine-2,4-diamine] | – |
| 8.30 | 7.64 | – | – | Cn1cc(-c2cnc3[nH]cc(-c4cc(N(CCO)c5ccccc5F)nc(N)n4)c3c2)cn1 [A26, 2-[{2-Amino-6-[5-(1-methyl-1H-pyrazol-4-yl)-1H-pyrrolo[2,3-b]-pyridin-3-yl]pyrimidin-4-yl)-(2-fluorophenyl)amino]ethanol] | – |
| 7.16 | 6.33 | – | – | COC(=O)CN(c1ccc(Cl)cc1)c1cc(-c2c[nH]c3ncc(-c4cnn(C)c4)cc23)nc(N)n1 [A24, Methyl [{2-amino-6-[5-(1-methyl-1H-pyrazol-4-yl)-1H-pyrrolo-[2,3-b]pyridin-3-yl]pyrimidin-4-yl)-(4-chlorophenyl)amino]acetate] | – |
| 7.34 | 6.92 | – | – | CCN(c1ccc(Cl)cc1)c1cc(-c2c[nH]c3ncc(-c4cnn(C)c4)cc23)nc(N)n1 [A13, N4-(4-Chlorophenyl)-N4-ethyl-6-[5-(1-methyl-1H-pyrazol-4-yl)-1H-pyrrolo[2,3-b]pyridin-3-yl]pyrimidine-2,4-diamine] | – |
| 7.78 | 6.10 | – | – | CN(c1ccccc1)c1cc(-c2c[nH]c3ncc(-c4cnn(C)c4)cc23)nc(N)n1 [A11, N4-Methyl-6-[5-(1-methyl-1H-pyrazol-4-yl)-1H-pyrrolo[2,3-b]-pyridin-3-yl]-N4-phenylpyrimidine-2,4-diamine] | – |
| 7.23 | 6.96 | – | – | Cn1cc(-c2cnc3[nH]cc(-c4cc(C5(c6ccccc6)CC5)nc(N)n4)c3c2)cn1 [A3, 4-[5-(1-Methyl-1H-pyrazol-4-yl)-1H-pyrrolo[2,3-b]pyridin-3-yl]-6-(1-phenylcyclopropyl)pyrimidin-2-ylamine] | – |
| 8.19 | 7.46 | – | – | Cn1cc(-c2cnc3[nH]cc(-c4cc(N(CCO)c5ccc(F)cc5F)nc(N)n4)c3c2)cn1 [A25, 2-[{2-Amino-6-[5-(1-methyl-1H-pyrazol-4-yl)-1H-pyrrolo[2,3-b]-pyridin-3-yl]pyrimidin-4-yl)-(2,4-difluorophenyl)amino]ethanol] | – |
| 6.06 | 5.85 | – | – | Cn1cc(-c2cnc3[nH]cc(-c4cc(C5(c6ccc(Cl)cc6)CCCC5)nc(N)n4)c3c2)cn1 [A7, 4-[1-(4-Chlorophenyl)cyclopentyl]-6-[5-(1-methyl-1H-pyrazol-4-yl)-1H-pyrrolo[2,3-b]pyridin-3-yl]pyrimidin-2-ylamine] | – |
| 8.33 | 8.59 | – | – | Cn1cc(-c2cnc3[nH]cc(-c4cc(N(CCO)c5ccccc5Cl)nc(N)n4)c3c2)cn1 [A16, 2-[{2-Amino-6-[5-(1-methyl-1H-pyrazol-4-yl)-1H-pyrrolo[2,3-b]-pyridin-3-yl]pyrimidin-4-yl}-(2-chlorophenyl)amino]ethanol] | – |
